In data set [1] the test system is melasma. Particulars: monotherapy; cited from earlier work.
The test system of data set [2] is tail of SKH:HR2 mice. Nature of the data set: Clinical pigmentation score on the tail of SKH:HR2 mice after topical application. It counts as in vivo. Particulars: for depigmenting activity (clinical pigmentation score): 4 weeks. On the procedure: (§1) The depigmenting activity of fluocinolone acetonide and of hydrocortisone was evaluated on the tail of female SKH:HR2 mice that were 6 weeks old at the beginning of the study. The products were applied topically (20 μl of product to the tail), 5 days a week for 4 weeks. Each group contains 5 animals:
Clinical observations: once a week the pigmentation is scored on a scale ranging from 0 (base pigmentation) to −4 (total depigmentation).
The depigmenting activities of three corticosteroids, fluocinolone acetonide, desonide and β-methasone valerate, were evaluated on the tail of female SKH:HR2 mice that were 8 weeks old at the beginning of the study. The products were applied topically (20 μl of product to the tail), 5 days a week for 5 weeks. Each group contains 6 animals.
Clinical observations: once a week, the pigmentation is scored on a scale ranging from 0 (base pigmentation) to −4 (total depigmentation).
The depigmenting activity of fluocinolone acetonide and of desonide was evaluated on the tail of female SKH:HR2 mice that were 8 weeks old at the beginning of the study. The products were applied topically (20 μl of product to the tail), 5 days a week for 4 weeks.

Data set [3] concerns tail of SKH:HR2 mice. The experiment in a line: Fontana-Masson-positive surface area in living epidermis of the tail (histology, image analysis). Type of data set: in vivo. Particulars: 4 weeks. On the procedure: as §1
A tail skin sample is taken at the end of the study and fixed with formol in order to carry out a histological analysis.
The epidermal surface area taken up by melanin is measured by image analysis on histological sections stained by the Fontana-Masson technique, which makes it possible to reveal the pigments. For each animal, the Fontana-Masson-positive surface area is measured by image analysis on five fields of interfollicular epidermis and weighted with respect to the length of corresponding epidermis in order to avoid any possible bias due to hyperplasia or atrophy of the epidermis. Since the horny layer is partially lost during the treatment of the samples, the measurement is carried out only in the living layers of the epidermis.

Data set [4] deals with melasma. Particulars: cited from earlier work.

Turning to `Oc1ccc(O)cc1` [hydroquinone], in the data set with melasma [1], the “time necessary to obtain a significant result” value is given as 12 weeks.
For `C[C@]12CCC(=O)C=C1CC[C@@H]1[C@@H]2[C@@H](O)C[C@@]2(C)[C@H]1CC[C@]2(O)C(=O)CO` [hydrocortisone], in the data set with tail of SKH:HR2 mice [2] (Example 1, 0.01% increased to 0.5% topical), the “depigmenting activity (clinical pigmentation score)” value is “only a very weak depigmenting activity”. Also, the “change of Fontana-Masson-positive surface area” value in the data set with tail of SKH:HR2 mice [3] (up to the concentration of 0.5% topical) is on record as “does not significantly modify”.
Turning to `CC1=C(/C=C/C(C)=C/C=C/C(C)=C/C(=O)O)C(C)(C)CCC1` [tretinoin], the “time necessary to obtain a significant result” value in the data set with melasma [1] is reported as 40 weeks.
As for `CCC(=O)O[C@]1(C(=O)CCl)[C@@H](C)C[C@H]2[C@@H]3CCC4=CC(=O)C=C[C@]4(C)[C@@]3(F)[C@@H](O)C[C@@]21C` [clobetasol propionate], the “cases in which treatment had to be stopped due to local atrophy and telangiectasiae” value in the data set with melasma [4] (0.05% topical, stopped after 4 weeks) is recorded as 30%. The “patients with lightening in whom the melasma reappeared at the same sites” value in the data set on melasma [4] (2 to 3 weeks after the treatment had been stopped) is on record as 57%.
As to `CC1(C)O[C@@H]2C[C@H]3[C@@H]4C[C@H](F)C5=CC(=O)C=C[C@]5(C)[C@@]4(F)[C@@H](O)C[C@]3(C)[C@]2(C(=O)CO)O1` [fluocinolone acetonide], the “depigmenting activity (clinical pigmentation score)” value in the data set with tail of SKH:HR2 mice [2] (Example 1, 0.0005% topical) is recorded as “remains substantial”; with tail of SKH:HR2 mice [2] (Example 3, 0.005% topical), “very significant depigmenting activity”. Moreover, the “depigmentation of the tail (clinical pigmentation score)” value in the data set on tail of SKH:HR2 mice [2] (Example 1, 0.01% topical, 5 days a week, after 4 weeks, compared with hydrocortisone at same concentration) is given as “marked depigmentation”. Also, the “depigmentation observed (clinical pigmentation score)” value in the data set with tail of SKH:HR2 mice [2] (Example 2, 0.01% topical, after 5 weeks) was “virtually total”. Also, the “depigmenting activity compared with other corticosteroids” value in the data set with tail of SKH:HR2 mice [2] (Example 2, equivalent concentration of 0.01%, 5 weeks) was “greater depigmenting activity than desonide and than β-methasone valerate”. In addition, the “depigmenting activity compared with desonide” value with tail of SKH:HR2 mice [2] (Example 3, equivalent concentration, throughout the study (4 weeks)) is “remains greater than that of desonide”. Also, the “decrease in the Fontana-Masson-positive surface area in the living layers of the tail epidermis” value was found to be 72% with tail of SKH:HR2 mice [3] (0.0005% topical) and 85% in the data set on tail of SKH:HR2 mice [3] (0.01% topical).

Values taken from patent publication US20100124538A1, “TOPICAL APPLICATION OF FLUOCINOLONE ACETONIDE FOR DEPIGMENTATION OF THE SKIN” (GALDERMA RESEARCH & DEVELOPMENT, priority 2007, published 2010).
